Data published in PubChem BioAssay (NCI).
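The compound was tested at five concentrations on cells cultured in 96-well plates, with a 48-hour exposure period. Definition used: TGI = concentration required for complete inhibition of growth.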

Experiments:
Experiment in all cases: NCI-60 cell line screen, 48 h
SW-620 colon = system: SW-620 colon
EKVX NSCLC = system: EKVX NSCLC
SK-MEL-28 melanoma = system: SK-MEL-28 melanoma
T-47D breast = system: T-47D breast
SF-539 CNS = system: SF-539 CNS
OVCAR-4 ovarian = system: OVCAR-4 ovarian
ACHN renal = system: ACHN renal
NCI-H23 lung = system: NCI-H23 lung
A498 renal = system: A498 renal
SK-OV-3 ovarian = system: SK-OV-3 ovarian
UACC-257 melanoma = system: UACC-257 melanoma
OVCAR-8 ovarian = system: OVCAR-8 ovarian
K-562 leukemia = system: K-562 leukemia
PC-3 prostate = system: PC-3 prostate
TK-10 renal = system: TK-10 renal
HS 578T breast = system: HS 578T breast
SNB-19 CNS = system: SNB-19 CNS
BT-549 breast = system: BT-549 breast
HL-60(TB) leukemia = system: HL-60(TB) leukemia
COLO 205 colon = system: COLO 205 colon
HCT-116 colon = system: HCT-116 colon
SN12C renal = system: SN12C renal
DU-145 prostate = system: DU-145 prostate
CAKI-1 renal = system: CAKI-1 renal
NCI-H460 lung = system: NCI-H460 lung
A549 NSCLC = system: A549 NSCLC
CCRF-CEM leukemia = system: CCRF-CEM leukemia
OVCAR-3 ovarian = system: OVCAR-3 ovarian
SF-295 CNS = system: SF-295 CNS
HOP-62 NSCLC = system: HOP-62 NSCLC
LOX IMVI melanoma = system: LOX IMVI melanoma
786-0 renal = system: 786-0 renal
NCI-H522 lung = system: NCI-H522 lung
HT29 colon = system: HT29 colon
MDA-MB-435 = system: MDA-MB-435
HCC-2998 colon = system: HCC-2998 colon
RPMI-8226 leukemia = system: RPMI-8226 leukemia
IGROV1 ovarian = system: IGROV1 ovarian
HCT-15 colon = system: HCT-15 colon
MDA-MB-231 breast = system: MDA-MB-231 breast
MDA-N = system: MDA-N
SF-268 CNS = system: SF-268 CNS
UO-31 renal = system: UO-31 renal
MCF7 breast = system: MCF7 breast
HOP-92 NSCLC = system: HOP-92 NSCLC
NCI/ADR-RES ovarian = system: NCI/ADR-RES ovarian
MALME-3M melanoma = system: MALME-3M melanoma
UACC-62 melanoma = system: UACC-62 melanoma
M14 melanoma = system: M14 melanoma
KM12 colon = system: KM12 colon
U251 CNS = system: U251 CNS
SK-MEL-2 melanoma = system: SK-MEL-2 melanoma
MOLT-4 leukemia = system: MOLT-4 leukemia
OVCAR-5 ovarian = system: OVCAR-5 ovarian
RXF 393 renal = system: RXF 393 renal

O=C(c1ccco1)N(C(=S)OCCOc1ccccc1)c1ccccc1
TGI (SW-620 colon): 41.8 µM | TGI (EKVX NSCLC): 52.4 µM | TGI (SK-MEL-28 melanoma): 40.3 µM | TGI (T-47D breast): 76.2 µM | TGI (SF-539 CNS): 39 µM | TGI (OVCAR-4 ovarian): 57.3 µM | TGI (ACHN renal): 53.4 µM | TGI (NCI-H23 lung): 39.9 µM | TGI (A498 renal): 33.1 µM | TGI (SK-OV-3 ovarian): 55.3 µM | TGI (UACC-257 melanoma): 37.4 µM | TGI (OVCAR-8 ovarian): 38.2 µM | TGI (K-562 leukemia): 83.4 µM | TGI (PC-3 prostate): 57.8 µM | TGI (TK-10 renal): 55.2 µM | TGI (HS 578T breast): > 100 µM | TGI (SNB-19 CNS): 59.7 µM | TGI (BT-549 breast): 43.5 µM | TGI (HL-60(TB) leukemia): 47.3 µM | TGI (COLO 205 colon): 37.5 µM | TGI (HCT-116 colon): 32.5 µM | TGI (SN12C renal): 39.1 µM | TGI (DU-145 prostate): 51.6 µM | TGI (CAKI-1 renal): 48.4 µM | TGI (NCI-H460 lung): 58.6 µM | TGI (A549 NSCLC): 90.2 µM | TGI (CCRF-CEM leukemia): 46.5 µM | TGI (OVCAR-3 ovarian): 32.2 µM | TGI (SF-295 CNS): 36.6 µM | TGI (HOP-62 NSCLC): 32.1 µM | TGI (LOX IMVI melanoma): 34.5 µM | TGI (786-0 renal): 38.3 µM | TGI (NCI-H522 lung): 40.5 µM | TGI (HT29 colon): 42.1 µM | TGI (MDA-MB-435): 29.7 µM | TGI (HCC-2998 colon): 37.9 µM | TGI (RPMI-8226 leukemia): 47.2 µM | TGI (IGROV1 ovarian): 36.9 µM | TGI (HCT-15 colon): 45.3 µM | TGI (MDA-MB-231 breast): 30.6 µM | TGI (MDA-N): 33.9 µM | TGI (SF-268 CNS): 35.3 µM | TGI (UO-31 renal): 35.5 µM | TGI (MCF7 breast): 42.8 µM | TGI (HOP-92 NSCLC): 37.5 µM | TGI (NCI/ADR-RES ovarian): 58.6 µM | TGI (MALME-3M melanoma): 40 µM | TGI (UACC-62 melanoma): 32.7 µM | TGI (M14 melanoma): 37.3 µM | TGI (KM12 colon): 46.2 µM | TGI (U251 CNS): 30.2 µM | TGI (SK-MEL-2 melanoma): 41.1 µM | TGI (MOLT-4 leukemia): 55.3 µM | TGI (OVCAR-5 ovarian): 41.1 µM | TGI (RXF 393 renal): 28.2 µM
